Test results taken from ChEMBL document CHEMBL1649467, “Impact of human serum albumin on oritavancin in vitro activity against enterococci” (Antimicrob Agents Chemother, 2009).
Converted amounts (≈) assume the structure as drawn.

Key:
Enterococcus faecalis [1] = experiment: Antimicrobial activity against vancomycin-resistant Enterococcus faecalis 1058946 by broth dilution method in presence of 4% HSA; assay type: functional
Enterococcus faecalis [2] = experiment: Bactericidal activity against vancomycin-resistant Enterococcus faecalis 1058946 expressing vanA gene assessed as change in bacterial count at 32 ug/ml by time-kill assay; assay type: functional
Enterococcus faecalis [3] = experiment: Bactericidal activity against vancomycin-susceptible Enterococcus faecalis ATCC 29212 assessed as change in bacterial count at 32 ug/ml by time-kill assay; assay type: functional
Enterococcus faecium [4] = experiment: Antimicrobial activity against vancomycin-resistant Enterococcus faecium 1119175 by broth dilution method in presence of 4% HSA; assay type: functional
Enterococcus faecium [5] = experiment: Bactericidal activity against vancomycin-resistant Enterococcus faecium 1059060 expressing vanA gene assessed as change in bacterial count at 2 ug/ml by time-kill assay; assay type: functional
Enterococcus faecalis [6] = experiment: Selectivity ratio of MIC for Enterococcus faecalis ATCC 51299 in presence of 4% HSA to MIC for Enterococcus faecalis 51299; assay type: functional
Enterococcus faecalis [7] = experiment: Bactericidal activity against vancomycin-resistant Enterococcus faecalis ATCC 51299 expressing vanB gene assessed as change in bacterial count at 2 ug/ml by time-kill assay; assay type: functional
Enterococcus faecium [8] = experiment: Antimicrobial activity against vancomycin-resistant Enterococcus faecium ATCC 51559 by broth dilution method; assay type: functional
Enterococcus faecalis [9] = experiment: Antimicrobial activity against vancomycin-resistant Enterococcus faecalis 1058946 by broth dilution method; assay type: functional
Enterococcus faecalis [10] = experiment: Bactericidal activity against vancomycin-susceptible Enterococcus faecalis ATCC 29212 assessed as change in bacterial count at 2 ug/ml by time-kill assay; assay type: functional
Enterococcus faecium [11] = experiment: Selectivity ratio of MIC for Enterococcus faecium 1059060 in presence of 4% HSA to MIC for Enterococcus faecium 1059060; assay type: functional
Enterococcus faecium [12] = experiment: Antimicrobial activity against vancomycin-resistant Enterococcus faecium 1059060 by broth dilution method; assay type: functional
Enterococcus faecalis [13] = experiment: Bactericidal activity against vancomycin-resistant Enterococcus faecalis ATCC 51299 expressing vanB gene assessed as change in bacterial count at 32 ug/ml by time-kill assay; assay type: functional
Enterococcus faecalis [14] = experiment: Bactericidal activity against vancomycin-resistant Enterococcus faecalis 1058946 expressing vanA gene assessed as change in bacterial count at 2 ug/ml by time-kill assay; assay type: functional
Enterococcus faecalis [15] = experiment: Antimicrobial activity against vancomycin-resistant Enterococcus faecalis ATCC 51299 by broth dilution method in presence of 4% HSA; assay type: functional
Enterococcus faecium [16] = experiment: Bactericidal activity against vancomycin-resistant Enterococcus faecium 1119175 expressing vanB gene assessed as change in bacterial count at 2 ug/ml by time-kill assay; assay type: functional
Enterococcus faecium [17] = experiment: Antimicrobial activity against vancomycin-resistant Enterococcus faecium 1119175 by broth dilution method; assay type: functional
Enterococcus faecalis [18] = experiment: Antimicrobial activity against vancomycin-resistant Enterococcus faecalis ATCC 51299 by broth dilution method; assay type: functional
Enterococcus faecium [19] = experiment: Bactericidal activity against vancomycin-resistant Enterococcus faecium ATCC 51559 expressing vanA gene assessed as change in bacterial count at 32 ug/ml by time-kill assay; assay type: functional
[20] = Free fraction in healthy human male at 200 mg, iv every 24 hrs by LC/MS/MS analysis; assay type: ADME, organism-based; settings: in vivo
Enterococcus faecium [21] = experiment: Antimicrobial activity against vancomycin-resistant Enterococcus faecium 1059060 by broth dilution method in presence of 4% HSA; assay type: functional
Enterococcus faecalis [22] = experiment: Antimicrobial activity against vancomycin-susceptible Enterococcus faecalis ATCC 29212 by broth dilution method; assay type: functional
[23] = Cmax in healthy human male at 200 mg, iv every 24 hrs by LC/MS/MS analysis; assay type: ADME, organism-based; design: dose 200 mg, route intravenous; settings: in vivo
Enterococcus faecium [24] = experiment: Bactericidal activity against vancomycin-resistant Enterococcus faecium 1059060 expressing vanA gene assessed as change in bacterial count at 32 ug/ml by time-kill assay; assay type: functional
Enterococcus faecium [25] = experiment: Selectivity ratio of MIC for Enterococcus faecium ATCC 51559 in presence of 4% HSA to MIC for Enterococcus faecium ATCC 51559; assay type: functional
Enterococcus faecalis [26] = experiment: Selectivity ratio of MIC for Enterococcus faecalis 1058946 in presence of 4% HSA to MIC for Enterococcus faecalis 1058946; assay type: functional
Enterococcus faecium [27] = experiment: Bactericidal activity against vancomycin-resistant Enterococcus faecium ATCC 51559 expressing vanA gene assessed as change in bacterial count at 2 ug/ml by time-kill assay; assay type: functional
Enterococcus faecium [28] = experiment: Bactericidal activity against vancomycin-resistant Enterococcus faecium 1119175 expressing vanB gene assessed as change in bacterial count at 32 ug/ml by time-kill assay; assay type: functional
Enterococcus faecium [29] = experiment: Antimicrobial activity against vancomycin-resistant Enterococcus faecium ATCC 51559 by broth dilution method in presence of 4% HAS; assay type: functional
Enterococcus faecalis [30] = experiment: Antimicrobial activity against vancomycin-susceptible Enterococcus faecalis ATCC 29212 by broth dilution method in presence of 4% HSA; assay type: functional
Enterococcus faecalis [31] = experiment: Selectivity ratio of MIC for Enterococcus faecalis ATCC 29212 in presence of 4% HSA to MIC for Enterococcus faecalis ATCC 29212; assay type: functional
Enterococcus faecium [32] = experiment: Bactericidal activity against vancomycin-resistant Enterococcus faecium ATCC 51559 expressing vanA gene assessed as change in bacterial count at 16 ug/ml by time-kill assay; assay type: functional
Enterococcus faecalis [33] = experiment: Bactericidal activity against vancomycin-resistant Enterococcus faecalis 1058946 expressing vanA gene assessed as change in bacterial count at 16 ug/ml by time-kill assay; assay type: functional
[34] = Free fraction in healthy human male at 1000 mg, iv every 12 hrs by LC/MS/MS analysis; assay type: ADME, organism-based; settings: in vivo
Enterococcus faecium [35] = experiment: Bactericidal activity against vancomycin-resistant Enterococcus faecium 1119175 expressing vanB gene assessed as change in bacterial count at 16 ug/ml by time-kill assay; assay type: functional
Enterococcus faecalis [36] = experiment: Bactericidal activity against vancomycin-susceptible Enterococcus faecalis ATCC 29212 assessed as change in bacterial count at 16 ug/ml by time-kill assay; assay type: functional
[37] = Cmax in healthy human male at 1000 mg, iv every 12 hrs by LC/MS/MS analysis; assay type: ADME, organism-based; design: dose 1000 mg, route intravenous; settings: in vivo
Enterococcus faecalis [38] = experiment: Bactericidal activity against vancomycin-resistant Enterococcus faecalis ATCC 51299 expressing vanB gene assessed as change in bacterial count at 64 ug/ml by time-kill assay; assay type: functional
Enterococcus faecalis [39] = experiment: Bactericidal activity against vancomycin-resistant Enterococcus faecalis ATCC 51299 expressing vanB gene assessed as change in bacterial count at 16 ug/ml by time-kill assay; assay type: functional
Enterococcus faecalis [40] = experiment: Bactericidal activity against vancomycin-resistant Enterococcus faecalis 1058946 expressing vanA gene assessed as change in bacterial count at 64 ug/ml by time-kill assay; assay type: functional
Enterococcus faecium [41] = experiment: Bactericidal activity against vancomycin-resistant Enterococcus faecium 1119175 expressing vanB gene assessed as change in bacterial count at 64 ug/ml by time-kill assay; assay type: functional
Enterococcus faecium [42] = experiment: Bactericidal activity against vancomycin-resistant Enterococcus faecium 1059060 expressing vanA gene assessed as change in bacterial count at 64 ug/ml by time-kill assay; assay type: functional
Enterococcus faecium [43] = experiment: Bactericidal activity against vancomycin-resistant Enterococcus faecium 1059060 expressing vanA gene assessed as change in bacterial count at 16 ug/ml by time-kill assay; assay type: functional
Enterococcus faecium [44] = experiment: Bactericidal activity against vancomycin-resistant Enterococcus faecium ATCC 51559 expressing vanA gene assessed as change in bacterial count at 64 ug/ml by time-kill assay; assay type: functional
Enterococcus faecalis [45] = experiment: Bactericidal activity against vancomycin-susceptible Enterococcus faecalis ATCC 29212 assessed as change in bacterial count at 64 ug/ml by time-kill assay; assay type: functional

SMILES: CN[C@H](CC(C)C)C(=O)N[C@H]1C(=O)N[C@@H](CC(N)=O)C(=O)N[C@H]2C(=O)N[C@H]3C(=O)N[C@H](C(=O)N[C@H](C(=O)O)c4cc(O)cc(O)c4-c4cc3ccc4O)[C@H](O[C@H]3C[C@](C)(N)[C@@H](O)[C@H](C)O3)c3ccc(c(Cl)c3)Oc3cc2cc(c3O[C@@H]2O[C@H](CO)[C@@H](O)[C@H](O)[C@H]2O[C@H]2C[C@](C)(NCc3ccc(-c4ccc(Cl)cc4)cc3)[C@@H](O)[C@H](C)O2)Oc2ccc(cc2Cl)[C@H]1O [ORITAVANCIN]
- MIC (Enterococcus faecalis [1]): 2 µg/mL
- log10CFU/ml (Enterococcus faecalis [2]): -1.2
- log10CFU/ml (Enterococcus faecalis [3]): -3.3
- MIC (Enterococcus faecium [4]): 0.01 µg/mL
- log10CFU/ml (Enterococcus faecium [5]): 1
- Ratio (Enterococcus faecalis [6]): 8
- log10CFU/ml (Enterococcus faecalis [7]): -1.2
- MIC (Enterococcus faecium [8]): 0.25 µg/mL (≈ 0.139 µM)
- MIC (Enterococcus faecalis [9]): 0.5 µg/mL (≈ 0.279 µM)
- log10CFU/ml (Enterococcus faecalis [10]): -0.48
- Ratio (Enterococcus faecium [11]): 8
- MIC (Enterococcus faecium [12]): 0.5 µg/mL (≈ 0.279 µM)
- log10CFU/ml (Enterococcus faecalis [13]): -1.6
- log10CFU/ml (Enterococcus faecalis [14]): 1.4
- MIC (Enterococcus faecalis [15]): 0.06 µg/mL
- log10CFU/ml (Enterococcus faecium [16]): 1.5
- MIC (Enterococcus faecium [17]): 0.016 µg/mL (≈ 0.00892 µM)
- MIC (Enterococcus faecalis [18]): 0.008 µg/mL (≈ 0.00446 µM)
- log10CFU/ml (Enterococcus faecium [19]): -1.2
- fraction unbound at 24 h [20]: 0.12
- MIC (Enterococcus faecium [21]): 4 µg/mL
- MIC (Enterococcus faecalis [22]): 0.008 µg/mL (≈ 0.00446 µM)
- Cmax [23]: 32000 ng/mL
- log10CFU/ml (Enterococcus faecium [24]): -0.85
- Ratio (Enterococcus faecium [25]): 2
- Ratio (Enterococcus faecalis [26]): 4
- log10CFU/ml (Enterococcus faecium [27]): 1.1
- log10CFU/ml (Enterococcus faecium [28]): -1.4
- MIC (Enterococcus faecium [29]): 0.5 µg/mL
- MIC (Enterococcus faecalis [30]): 0.016 µg/mL
- Ratio (Enterococcus faecalis [31]): 2

SMILES: CN[C@H](CC(C)C)C(=O)N[C@H]1C(=O)N[C@@H](CC(N)=O)C(=O)N[C@H]2C(=O)N[C@H]3C(=O)N[C@H](C(=O)N[C@H](C(=O)O)c4cc(O)cc(O)c4-c4cc3ccc4O)[C@H](O)c3ccc(c(Cl)c3)Oc3cc2cc(c3O[C@@H]2O[C@H](CO)[C@@H](O)[C@H](O)[C@H]2O[C@H]2C[C@](C)(N)[C@H](O)[C@H](C)O2)Oc2ccc(cc2Cl)[C@H]1O [VANCOMYCIN]
- log10CFU/ml (Enterococcus faecium [32]): 2.6
- MIC (Enterococcus faecalis [1]): > 128 µg/mL
- MIC (Enterococcus faecium [4]): > 128 µg/mL
- log10CFU/ml (Enterococcus faecalis [33]): 2.5
- fraction unbound at 12 h [34]: 0.54
- log10CFU/ml (Enterococcus faecium [35]): 1.1
- MIC (Enterococcus faecium [8]): > 128 µg/mL
- MIC (Enterococcus faecalis [9]): > 128 µg/mL
- log10CFU/ml (Enterococcus faecalis [36]): -1.7
- Cmax [37]: 64000 ng/mL
- MIC (Enterococcus faecium [12]): > 128 µg/mL
- log10CFU/ml (Enterococcus faecalis [38]): 0.85
- log10CFU/ml (Enterococcus faecalis [39]): 2.3
- log10CFU/ml (Enterococcus faecalis [40]): 2.3
- log10CFU/ml (Enterococcus faecium [41]): 1.2
- log10CFU/ml (Enterococcus faecium [42]): 2.2
- log10CFU/ml (Enterococcus faecium [43]): 2.3
- MIC (Enterococcus faecalis [15]): 128 µg/mL
- log10CFU/ml (Enterococcus faecium [44]): 2.2
- MIC (Enterococcus faecium [17]): > 128 µg/mL
- MIC (Enterococcus faecalis [18]): 128 µg/mL (≈ 88.3 µM)
- MIC (Enterococcus faecium [21]): > 128 µg/mL
- MIC (Enterococcus faecalis [22]): 2 µg/mL (≈ 1.38 µM)
- log10CFU/ml (Enterococcus faecalis [45]): -0.76
- MIC (Enterococcus faecium [29]): > 128 µg/mL
- MIC (Enterococcus faecalis [30]): 2 µg/mL
